The numbers were not newly measured in patent US20130095180A1, “TIME-DELAYED SUSTAINED RELEASE PHARMACEUTICAL COMPOSITION COMPRISING DAPOXETINE FOR ORAL ADMINISTRATION” (NAVIPHARM. CO., LTD., priority 2010, published 2013), which cites them from elsewhere.

The term Tmax denotes the time at which the peak concentration occurs.

For the series the following is noted: background characteristics of the drug.
`CN(C)[C@@H](CCOc1cccc2ccccc12)c1ccccc1` [Dapoxetine, (S)-(+)-N,N-dimethyl-1-phenyl-3-(1-Naphthalenyloxy)-propaneamine]: the Tmax entry is “about 1 hour”.
Regarding `CCCOc1ccc(S(=O)(=O)NCCC2CCCN2C)cc1-c1nc2c(CCC)nn(C)c2c(=O)[nH]1` (centres unmarked) [Udenafil], the “Half Life” value was 7 to 12 h and the Tmax is 1 h.
For the compound `COc1ccc(CN=c2[nH]c(N3CCC[C@H]3CO)ncc2C(=O)NCc2ncccn2)cc1Cl` [Avanafil], the “Half Life” value was 5 to 11 h and the Tmax was 0.3 to 0.5 h.
As for `CCCc1nn(C)c2c(=O)[nH]c(-c3cc(S(=O)(=O)N4CCN(C)CC4)ccc3OCC)nc12` [Sildenafil], the “Half Life” value was 3 to 4 h.
`CCCc1nc(C)c2c(=O)[nH]c(-c3cc(S(=O)(=O)N4CCN(CC)CC4)ccc3OCC)nn12` [Vardenafil]: the “Half Life” value was 4 to 5 h and the time of peak concentration (Tmax) is 0.7 h.
